Patent US20240343704A1, “HALO-SUBSTITUTED AMINO PYRIDINE COMPOUNDS AS INHIBITORS OF THE HAEMATOPOIETIC PROGENITOR KINASE 1 (HPK1)” (priority 2021, published 2024)

Legend:
[1] = target: T1, Recombinant (1-346) HPK1 (h) (Homo sapiens, UniProt Q92918); test: HPK1 Human STE Kinase Enzymatic Radiometric Assay; assay type: biochemical; conditions: read-out: HPK1 IC50 nM Range*
T1 construct: Recombinant (1-346) HPK1 (h) is incubated with 8 mM MOPS pH 7.0
T1 sequence (Q92918 1-346): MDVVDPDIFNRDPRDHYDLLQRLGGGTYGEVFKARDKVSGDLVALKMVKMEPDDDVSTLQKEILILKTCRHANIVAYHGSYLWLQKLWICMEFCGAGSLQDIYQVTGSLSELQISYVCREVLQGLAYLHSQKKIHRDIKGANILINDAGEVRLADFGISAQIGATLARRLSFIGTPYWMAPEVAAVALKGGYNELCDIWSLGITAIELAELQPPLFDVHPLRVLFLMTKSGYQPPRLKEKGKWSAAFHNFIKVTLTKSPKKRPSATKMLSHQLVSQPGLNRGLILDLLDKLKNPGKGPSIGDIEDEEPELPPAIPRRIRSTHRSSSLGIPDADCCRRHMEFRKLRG
Method: A stock solution of 10 mM of test compound is prepared in DMSO. The compound plate was prepared by 3-fold and 9-point serial dilutions. […] The reaction is initiated by The addition of the Mg/ATP mix. After incubation for 40 minutes at RT, the reaction is stopped by the addition of phosphoric acid to a concentration of 0.5%.

Lck (h) = Lck (h) (Homo sapiens, UniProt P06239); test: Lck Human  Kinase Enzymatic Radiometric Assay; assay type: biochemical; conditions: read-out: Lck IC50 nM Range*
Chain of Lck (h) (P06239 whole entry): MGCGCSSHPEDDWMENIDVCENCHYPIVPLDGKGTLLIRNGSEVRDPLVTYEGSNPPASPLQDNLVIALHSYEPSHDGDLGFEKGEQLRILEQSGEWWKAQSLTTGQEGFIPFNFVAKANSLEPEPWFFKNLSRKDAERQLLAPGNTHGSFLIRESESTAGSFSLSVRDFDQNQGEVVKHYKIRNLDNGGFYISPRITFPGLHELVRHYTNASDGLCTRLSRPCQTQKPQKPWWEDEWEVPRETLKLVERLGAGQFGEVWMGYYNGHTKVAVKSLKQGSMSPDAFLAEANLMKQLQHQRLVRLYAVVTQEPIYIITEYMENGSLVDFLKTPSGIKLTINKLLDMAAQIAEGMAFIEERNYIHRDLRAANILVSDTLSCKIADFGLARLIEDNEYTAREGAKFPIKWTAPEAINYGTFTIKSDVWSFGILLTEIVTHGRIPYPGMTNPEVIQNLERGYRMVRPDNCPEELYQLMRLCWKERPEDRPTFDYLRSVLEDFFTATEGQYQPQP
Summary of the method: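 Substrate 33P-incorporation measured by scintillation counting after spotting on P30 filtermat and phosphoric acid washes. Human Lck reacted 40 min at RT in 50 mM Tris pH 7.5 with 10 mM MgAcetate, [gamma-33P]-ATP, 250 uM Cdc2 peptide, 0.1 mM EGTA and 0.1 mM Na3VO4.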

SMILES	IC50 [1]	IC50 (Lck (h))
CC(C)[C@H]1CN(c2ccc(-c3cc(-c4ccc5c(c4)CCNC5=O)c(N)nc3Cl)cc2)CCO1 [I-136, (S)-6-(2-amino-6-chloro-5-(4-(2-isopropylmorpholino)phenyl)pyridin-3-yl)-3,4-dihydroisoquinolin-1(2H)-one]	101 to 1000 nM	> 1000 nM
Nc1nc(F)c(-c2ccc(C3=CCN(CCO)CC3)cc2)cc1-c1ccc2c(c1)CCNC2=O [I-138, 6-(2-amino-6-fluoro-5-(4-(1-(2-hydroxyethyl)-1,2,3,6-tetrahydropyridin-4-yl)phenyl)pyridin-3-yl)-3,4-dihydroisoquinolin-1(2H)-one]	0.1 to 10 nM	> 1000 nM
COCCN1CC=C(c2ccc(-c3cc(-c4ccc5c(c4)CCNC5=O)c(N)nc3F)cc2)CC1 [I-139, 6-(2-amino-6-fluoro-5-(4-(1-(2-methoxyethyl)-1,2,3,6-tetrahydropyridin-4-yl)phenyl)pyridin-3-yl)-3,4-dihydroisoquinolin-1(2H)-one]	0.1 to 10 nM	> 1000 nM
COCCN1C[C@H]2C[C@@]2(c2ccc(-c3cc(-c4ccc5c(c4)CCNC5=O)c(N)nc3F)cc2)C1 [I-140, 6-(2-amino-6-fluoro-5-(4-((1R,5S)-3-(2-methoxyethyl)-3-azabicyclo[3.1.0]hexan-1-yl)phenyl)pyridin-3-yl)-3,4-dihydroisoquinolin-1(2H)-one]	0.1 to 10 nM	> 1000 nM
CC(C)C(=O)N1C[C@H]2C[C@@]2(c2ccc(-c3cc(-c4ccc5c(c4)CCNC5=O)c(N)nc3F)cc2)C1 [I-143, 6-(2-amino-6-fluoro-5-(4-((1R,5S)-3-isobutyryl-3-azabicyclo[3.1.0]hexan-1-yl)phenyl)pyridin-3-yl)-3,4-dihydroisoquinolin-1(2H)-one]	0.1 to 10 nM	> 1000 nM
C[C@H]1CC(Oc2ccc(-c3cc(-c4ccc5c(c4)CCNC5=O)c(N)nc3F)cc2)C[C@H](C)N1 (stereo partly drawn) [I-144, 6-(2-amino-5-(4-(((2S,6S)-2,6-dimethylpiperidin-4-yl)oxy)phenyl)-6-fluoropyridin-3-yl)-3,4-dihydroisoquinolin-1(2H)-one]	0.1 to 10 nM	101 to 1000 nM
Nc1nc(F)c(-c2ccc(OC3CCNCC3)c3c2OCO3)cc1-c1ccc2c(c1)CCNC2=O [I-145, 6-(2-amino-6-fluoro-5-(7-(piperidin-4-yloxy)benzo[d][1,3]dioxol-4-yl)pyridin-3-yl)-3,4-dihydroisoquinolin-1(2H)-one]	0.1 to 10 nM	> 1000 nM
Nc1nc(F)c(-c2ccc(OC3CCNCC3)c(F)c2F)cc1-c1ccc2c(c1)CCNC2=O [I-148, 6-(2-amino-5-(2,3-difluoro-4-(piperidin-4-yloxy)phenyl)-6-fluoropyridin-3-yl)-3,4-dihydroisoquinolin-1(2H)-one]	11 to 100 nM	> 1000 nM
Nc1nc(F)c(-c2cc(F)c(OC3CCNCC3)cc2F)cc1-c1ccc2c(c1)CCNC2=O [I-149, 6-(2-amino-5-(2,5-difluoro-4-(piperidin-4-yloxy)phenyl)-6-fluoropyridin-3-yl)-3,4-dihydroisoquinolin-1(2H)-one]	11 to 100 nM	> 1000 nM
COc1cc(-c2cc(-c3ccc4c(c3)CCNC4=O)c(N)nc2F)ccc1OC1CCNCC1 [I-151, 6-(2-amino-6-fluoro-5-(3-methoxy-4-(piperidin-4-yloxy)phenyl)pyridin-3-yl)-3,4-dihydroisoquinolin-1(2H)-one]	11 to 100 nM	> 1000 nM
Nc1nc(F)c(-c2ccc(C3CCCCN3C3COC3)cc2)cc1-c1ccc2c(c1)CCNC2=O (stereo not shown) [I-153, 6-(2-amino-6-fluoro-5-(4-(1-(oxetan-3-yl)piperidin-2-yl)phenyl)pyridin-3-yl)-3,4-dihydroisoquinolin-1(2H)-one]	11 to 100 nM	> 1000 nM
Nc1nc(F)c(-c2ccc(C3COCCN3C3COC3)cc2)cc1-c1ccc2c(c1)CCNC2=O (stereo not shown) [I-154, 6-(2-amino-6-fluoro-5-(4-(4-(oxetan-3-yl)morpholin-3-yl)phenyl)pyridin-3-yl)-3,4-dihydroisoquinolin-1(2H)-one]	11 to 100 nM	> 1000 nM
CN(CC(F)(F)F)C1CCN(c2ccc(-c3cc(-c4ccc5c(c4)CCNC5=O)c(N)nc3F)cc2)C1 (stereo not shown) [I-159, 6-(2-amino-6-fluoro-5-(4-(3-(methyl(2,2,2-trifluoroethyl)amino)pyrrolidin-1-yl)phenyl)pyridin-3-yl)-3,4-dihydroisoquinolin-1(2H)-one]	0.1 to 10 nM	> 1000 nM
COCCN(C)[C@@H]1CCN(c2ccc(-c3cc(-c4ccc5c(c4)CCNC5=O)c(N)nc3F)cc2)C1 [I-160, (R)-6-(2-amino-6-fluoro-5-(4-(3-((2-methoxyethyl)(methyl)amino)pyrrolidin-1-yl)phenyl)pyridin-3-yl)-3,4-dihydroisoquinolin-1(2H)-one]	0.1 to 10 nM	> 1000 nM

Other lines, results leading:

IC50 [1]	IC50 (Lck (h))	SMILES
11 to 100 nM	> 1000 nM	CC(C)[C@@H]1CN(c2ccc(-c3cc(-c4ccc5c(c4)CCNC5=O)c(N)nc3Cl)c(F)c2)CCO1 [I-137, (R)-6-(2-amino-6-chloro-5-(2-fluoro-4-(2-isopropylmorpholino)phenyl)pyridin-3-yl)-3,4-dihydroisoquinolin-1(2H)-one]
0.1 to 10 nM	> 1000 nM	CC(C)N1C[C@H]2C[C@@]2(c2ccc(-c3cc(-c4cc5c(cc4F)C(=O)NCC5)c(N)nc3F)cc2)C1 [I-141, 6-(2-amino-6-fluoro-5-(4-((1R,5S)-3-isopropyl-3-azabicyclo[3.1.0]hexan-1-yl)phenyl)pyridin-3-yl)-7-fluoro-3,4-dihydroisoquinolin-1(2H)-one]
0.1 to 10 nM	> 1000 nM	CC(C)N1C[C@@H]2C[C@]2(c2ccc(-c3cc(-c4cc5c(cc4F)C(=O)NCC5)c(N)nc3F)cc2)C1 [I-142, 6-(2-amino-6-fluoro-5-(4-((1S,5R)-3-isopropyl-3-azabicyclo[3.1.0]hexan-1-yl)phenyl)pyridin-3-yl)-7-fluoro-3,4-dihydroisoquinolin-1(2H)-one]
11 to 100 nM	> 1000 nM	Nc1nc(F)c(-c2ccc(OC3CNC3)cc2)cc1-c1ccc2c(c1)CCNC2=O [I-146, 6-(2-amino-5-(4-(azetidin-3-yloxy)phenyl)-6-fluoropyridin-3-yl)-3,4-dihydroisoquinolin-1(2H)-one]
0.1 to 10 nM	> 1000 nM	CC1(C)CC(Oc2ccc(-c3cc(-c4ccc5c(c4)CCNC5=O)c(N)nc3F)cc2)CCN1 (stereo not shown) [I-147, 6-(2-amino-5-(4-((2,2-dimethylpiperidin-4-yl)oxy)phenyl)-6-fluoropyridin-3-yl)-3,4-dihydroisoquinolin-1(2H)-one]
11 to 100 nM	> 1000 nM	COc1cc(OC2CCNCC2)ccc1-c1cc(-c2ccc3c(c2)CCNC3=O)c(N)nc1F [I-150, 6-(2-amino-6-fluoro-5-(2-methoxy-4-(piperidin-4-yloxy)phenyl)pyridin-3-yl)-3,4-dihydroisoquinolin-1(2H)-one]
0.1 to 10 nM	> 1000 nM	Nc1nc(F)c(-c2ccc(C3CCN(C4COC4)CC3)cc2)cc1-c1ccc2c(c1)CCNC2=O [I-152, 6-(2-amino-6-fluoro-5-(4-(1-(oxetan-3-yl)piperidin-4-yl)phenyl)pyridin-3-yl)-3,4-dihydroisoquinolin-1(2H)-one]
0.1 to 10 nM	> 1000 nM	Nc1nc(F)c(-c2ccc(C3=CCN(C4COC4)CC3)cc2)cc1-c1ccc2c(c1)CCNC2=O [I-155, 6-(2-amino-6-fluoro-5-(4-(1-(oxetan-3-yl)-1,2,3,6-tetrahydropyridin-4-yl)phenyl)pyridin-3-yl)-3,4-dihydroisoquinolin-1(2H)-one]
0.1 to 10 nM	> 1000 nM	Nc1nc(F)c(-c2ccc([C@@]34C[C@@H]3CN(C3COC3)C4)cc2)cc1-c1ccc2c(c1)CCNC2=O [I-156, 6-(2-amino-6-fluoro-5-(4-((1R,5S)-3-(oxetan-3-yl)-3-azabicyclo[3.1.0]hexan-1-yl)phenyl)pyridin-3-yl)-3,4-dihydroisoquinolin-1(2H)-one]
0.1 to 10 nM	> 1000 nM	CN(C)C1CCN(c2ccc(-c3cc(-c4ccc5c(c4)CCNC5=O)c(N)nc3F)cc2)C1 (stereo not shown) [I-157, 6-(2-amino-5-(4-(3-(dimethylamino)pyrrolidin-1-yl)phenyl)-6-fluoropyridin-3-yl)-3,4-dihydroisoquinolin-1(2H)-one]
0.1 to 10 nM	101 to 1000 nM	CCN(C)C1CCN(c2ccc(-c3cc(-c4ccc5c(c4)CCNC5=O)c(N)nc3F)cc2)C1 (stereo not shown) [I-158, 6-(2-amino-5-(4-(3-(ethyl(methyl)amino)pyrrolidin-1-yl)phenyl)-6-fluoropyridin-3-yl)-3,4-dihydroisoquinolin-1(2H)-one]
0.1 to 10 nM	101 to 1000 nM	CN(CC1CC1)[C@@H]1CCN(c2ccc(-c3cc(-c4ccc5c(c4)CCNC5=O)c(N)nc3F)cc2)C1 [I-161, (R)-6-(2-amino-5-(4-(3-((cyclopropylmethyl)(methyl)amino)pyrrolidin-1-yl)phenyl)-6-fluoropyridin-3-yl)-3,4-dihydroisoquinolin-1(2H)-one]
